# Test system: not listed separately
# Experiment: Relative odour threshold of constituents compared to the whole stereoisomer mixture
# Details: ratio rac-1b: rac-1d: 1f
# Description: b) A 6:2:1 racemic mixture If of diastereomers of (1R*,2S*,2′S*,4R*,5′R*)-, (1R*,2S*,2′S*,4R*,5′S*)- and (1R*,2S*,2′R*,4R*,5′S*)-1,2′,5′,7,7-pentamethylspiro[bicyclo[2.2.1]heptane-2,4′-[1,3]dioxane] was obtained in 38% overall yield following the experimental procedure of Example 1c, starting from the diol mixture 2d obtained from rac-camphor via 2-(1-methylallyl)-1,7,7-trimethylbicyclo[2.2.1]heptan-2-ol (5a), applying the methodology of Kostova et al (Helv. Chim. Acta 1999, 82, 1385), i.e. route III. The epimeric intermediate enols and diols were not separated. (1R*,2S*,2′S*,4R*,5′S*)- and (1R*,2S*,2′S*,4R*,5′R*)- enatiomeric pairs are the strongest constituents of the mixture. Their relative odour threshold, compared to the whole stereoisomer mixture, were 1:50:4 (rac-1b: rac-1d: 1f).
row,SMILES,relative odour threshold
1,"CC1OCC(C)C2(CC3CCC2(C)C3(C)C)O1 (racemic) [Compound 1f, (1RS,2SR,2′RS/SR,4RS,5′RS/SR)-1,2′,5′,7,7-Pentamethylspiro[bicyclo[2.2.1]heptane-2,4′-[1,3]dioxane]]",4
2,CC1OCC(C)C2(CC3CCC2(C)C3(C)C)O1 (racemic) [rac-1b],1
3,CC1OCC(C)C2(CC3CCC2(C)C3(C)C)O1 (racemic) [rac-1d],50

# Test system: panel of trained evaluators
# Experiment: Determination of GC-odour threshold concentration
# Details: gas chromatograph with sniff port; racemic mixture of compounds; group of 4 panelists; identical conditions
# Procedure: Determination of GC-odour threshold concentration
# According to standard procedures known to the person skilled in the art, threshold concentrations for volatile perfumery compounds are determined on a gas chromatograph equipped with a sniff port by a panel of trained evaluators. The lowest concentration smelled by each panellist is recorded as the individual threshold concentration expressed in ng (absolute amount of compound delivered at the sniff port).
# Under identical conditions the odour threshold concentration for racemic mixture of compounds A, B and C respectively was measured and compared by a group of 4 panelists.
row,SMILES,odour threshold concentration geometric mean
1,CC1OCCC2(CC3CCC2(C)C3(C)C)O1 (racemic) [A],22 ng
2,CC1CC2(CC3CCC2(C)C3(C)C)OC(C)O1 (racemic) [B],68 ng
3,CC1OCC(C)C2(CC3CCC2(C)C3(C)C)O1 (stereo not drawn) [C],3 ng

# Test system: not listed separately
# Experiment: Odour description (olfactory evaluation of the compound)
# Details: stated within the odour description
row,SMILES,Odour strength compared to another compound
1,"C[C@@H]1OC[C@H](C)[C@]2(C[C@H]3CC[C@]2(C)C3(C)C)O1 (single isomer, unassigned) [Compound 1c]",weaker than 1b
2,"CC[C@@H]1OC[C@H](C)[C@]2(C[C@H]3CC[C@]2(C)C3(C)C)O1 [Compound 1h, (1R,2S,2′R,4R,5′S)-2′-Ethyl-1,5′,7,7-tetramethylspiro[bicyclo[2.2.1]heptane-2,4′-[1,3]dioxane]]",weaker than compound 1g
3,"CC(C)[C@@H]1OC[C@H](C)[C@]2(C[C@H]3CC[C@]2(C)C3(C)C)O1 [Compound 1j, (1R,2S,2′R,4R,5′S)-2′-Isopropyl-1,5′,7,7-tetramethylspiro[bicyclo[2.2.1]heptane-2,4′-[1,3]dioxane]]",weaker than compound 1i

# From patent US20080161223A1, “Spirobornyl-2,4-(1,3-Dioxanes)] And Their Uses As Fragrance Ingredients” (GIVAUDAN SA, priority 2005, published 2008)
